Test results published in patent US20220117948A1, “TRITERPENOID ANTIFUNGALS FOR THE TREATMENT OF FUNGAL OSTEO-ARTICULAR INFECTIONS” (Scynexis, Inc., priority 2019, published 2022).
One block for each compound: values may come before it. Starred links: 1 amine or outer side, 2 acyl side, 3 side chain; linkers in the order of their positions; H or OH if unused. Positions of bridges follow the written chain, without caps; N, C: chain ends. Non-standard residues stand in square brackets, D forms with d. Residues, ends and D or L forms follow the SMILES beside them. *: point of attachment. pTerphenylCO(4''-OnC5H11) = CCCCCOc1ccc(-c2ccc(-c3ccc(C(=O)*)cc3)cc2)cc1; Orn(4R-OH,5R-OH) = O=C([C@H](C[C@@H](O)[C@@H](O)N[*:3])N[*:1])[*:2]; hTyr(3S-OH,4S-OH) = N[C@H](C(=O)O)[C@H](O)[C@@H](O)c1ccc(O)cc1; Pro(3S-OH,4S-Me) = C[C@H]1CN[C@H](C(=O)O)[C@H]1O; Hyp = O=C(O)[C@@H]1C[C@@H](O)CN1

Assays:
[1] = system: sessile (biofilm) forms of Candida and non-Candida isolates; details: XTT reduction assay, confirmed by scanning electron microscopy; cited from earlier work
[2] = design: species or system male pigmented Long-Evans rats; details: rat, in vivo
Experimental: As a first step of the feasibility evaluation, the tissue distribution of SCY-078 was evaluated in an animal model. […] WH rats were used for mass balance and pharmacokinetic (PK) determinations after i.v. and oral doses, and both WH and LE rats were used for Quantitative whole-body autoradiography (QWBA) determinations. Dose levels were selected to reflect the clinically relevant 11.2-μg·h/ml target exposure for Candida spp. infections. The concentration, homogeneity, radio purity, and stability of dosing formulations were confirmed to be acceptable before dosing. For QWBA whole-body sections (˜40 μm thick via Leica CM3600 cryomicrotome; Nussloch, Germany), where all major tissues, organs, and biological fluids were represented, sections were exposed for phosphor imaging (Fuji Biomedical, Stamford, Conn.) together with calibration standards. […] Quantification was performed by image densitometry with MCID image analysis software (v. 7.0; Interfocus Imaging Ltd., Linton, Cambridge, UK), and a standard curve was constructed from the integrated response (molecular dynamics counts [MDC]/mm2) and the nominal concentrations of the 14C-calibration standards. The concentrations of radioactivity were expressed as [14C]SCY-078 μg equiv/g tissue. The lower limit of quantitation was 0.024 and 0.049 μg equiv/g of tissue for i.v. and oral doses of SCY-078, respectively. […]

[3] = system: Candida tropicalis spondylodiscitis; assay type: in vivo, human; details: Example B: person, Candida tropicalis spondylodiscitis L5/S1; oral 750 mg BID 2 days then 750 mg QD (citrate salt tablets); 88 days of treatment
Text: (§1) This example presents treatment courses of two patients with Candida spondylodiscitis who were enrolled in an “Open-Label Study to Evaluate Efficacy and Safety of SCY-078 in Patients With Refractory or Intolerant Fungal Diseases (FURI)” (clinicaltrials.gov identifier NCT03059992).
(§2) Objective: The objective of the study is to evaluate the efficacy of orally administered SCY-078 for the treatment of fungal infections that are refractory to or intolerant of approved antifungal agents.
(§3) Study design: This is a multicenter, open-label, non-comparator, single-arm study to evaluate the efficacy, safety, and pharmacokinetics (PK) of SCY-078 (administered as the citrate salt) in male and female subjects≥18 years of age with documented invasive and/or severe candidiasis that has been refractory to or intolerant of, or has shown toxicities associated with standard of care (SoC) antifungal treatment. Subjects must have a documented eligible acute or chronic invasive candidiasis (including candidemia) and meet all study criteria to be considered for enrollment. […]
(§4) Efficacy: Efficacy will be assessed primarily in terms of global success (both clinical success and mycological success). Complete global response, partial global response, clinical success, and mycological success will also be assessed. […]

[4] = system: Candida albicans spondylodiscitis; assay type: in vivo, human; details: Example A: person, Candida albicans spondylodiscitis L4/L5; oral 750 mg BID 2 days then 750 mg QD (citrate salt tablets); 277 days of treatment
Text: as §1, §2, §3, §4

[5] = system: Candida and non-Candida isolates causing fungaemia; details: 178 Candida and non-Candida isolates causing fungaemia; EUCAST E Def 7.3 and CLSI M27-A3; cited from earlier work
[6] = cited from earlier work
[7] = mice; cited from earlier work

- exposure observed in bone compared with plasma [2]: exceeded the exposure measured in plasma
- exposure observed in bone marrow compared with plasma [2]: exceeded the exposure measured in plasma
SMILES: CC(C)[C@@H](C)[C@@]1(C)CC[C@]2(C)[C@H]3CC[C@@H]4[C@@]5(COC[C@@]4(C)[C@@H](OC[C@](C)(N)C(C)(C)C)[C@H](n4ncnc4-c4ccncc4)C5)C3=CC[C@@]2(C)[C@@H]1C(=O)O [SCY-078, (1S,4aR,6aS,7R,8R,10aR,10bR,12aR,14R,15R)-15-[[(2R)-2-amino-2,3,3-trimethylbutyl]oxy]-8-[(1R)-1,2-dimethylpropyl]-14-[5-(4-pyridinyl)-1H-1,2,4-triazol-1-yl]-1,6,6a,7,8,9,10,10a,10b,11,12,12a-dodecahydro-1,6a,8,10a-tetramethyl-4H-1,4a-propano-2H-phenanthro[1,2-c]pyran-7-carboxylic acid]
- antibiofilm activity [1]: activity against the biofilms
- patient's response to date [3]: resolved
- patient's response to date [4]: improved
- in vitro activity against planktonic form [5]: potent in vitro activity

SMILES: CCCCCOc1ccc(-c2ccc(-c3ccc(C(=O)N[C@H]4C[C@@H](O)[C@@H](O)NC(=O)[C@@H]5[C@@H](O)[C@@H](C)CN5C(=O)[C@H]([C@@H](C)O)NC(=O)[C@H]([C@H](O)[C@@H](O)c5ccc(O)cc5)NC(=O)[C@@H]5C[C@@H](O)CN5C(=O)[C@H]([C@@H](C)O)NC4=O)cc3)cc2)cc1 [anidulafungin] ({pTerphenylCO(4''-OnC5H11)}-[Orn(4R-OH,5R-OH)]T[Hyp][hTyr(3S-OH,4S-OH)]T[Pro(3S-OH,4S-Me)]; lactam 1-C)
- bone/plasma concentration ratio ([6]; neonatal rats after a single dose): 0.21
- skeletal muscle concentrations compared with plasma ([6]; rats): comparable to those in plasma

SMILES: CC[C@H](C)C[C@H](C)CCCCCCCCC(=O)N[C@H]1C[C@@H](O)[C@@H](NCCN)NC(=O)[C@@H]2[C@@H](O)CCN2C(=O)[C@H]([C@H](O)CCN)NC(=O)[C@H]([C@H](O)[C@@H](O)c2ccc(O)cc2)NC(=O)[C@@H]2C[C@@H](O)CN2C(=O)[C@H]([C@@H](C)O)NC1=O [caspofungin]
- skeletal muscle concentrations as % of those in plasma [7]: less than 50%
